According to patent US10350315B2, “Quinoline-3-carboxamide compounds and their use in diagnosis” (Westfaelische Wihelms-Universitaet Muenster, priority 2014, dated 2019):
Entries after “also recorded” stand apart in the source; their conditions may differ.

Experiments:
[1] = Biodistribution and elimination of [99mTc]FEB054 in healthy Balb/c mice (SPECT/CT); format: in vivo
Experimental: FIG. 18: Biodistribution (A) and elimination (B) of [^99mTc]FEB054 in healthy Balb/c mice. The tracer was intravenously injected at a dose of 62 MBq per mouse. The tracer accumulation and elimination was measured 0-90 min post injection.
Mice were injected and scanned under isoflurane/oxygen inhalation anaesthesia (1.4-1.8% isoflurane, 0.5 l O2/min). All animals were injected with a target dose of 2.5 MBq/g body weight) and a total injection volume ≤150 μl. For the image acquisition we used a NanoSPECT/CT-Plus preclinical camera (Mediso Medical Imaging Systems; Hungary), a 4-head gamma camera equipped with multi-pinhole collimators and a cone beam CT imaging system. In the shown studies we employed 9 pinholes/head with a diameter of 1.0 mm and a field of view of 30 mm×16 mm. 10 projections/scan and 60 seconds/projection resulting in a minimum of 100 kcounts/projection (in order to achieve high quality images with high statistics) were acquired. At the end of the SPECT measurement a CT scan was performed (same FOV as the SPECT scan) (55 kVp; 180 projections/rotation; 500 ms exposure time and 1 mm pitch with constant statistics). Data analysis was performed by CT based definitions of regions-of-interest and quantitative mesurements are expressed as kBq/mL.

S100A9 [2] = target: T1, S100A9 (Mus musculus, UniProt P31725); assay: Collagen induced arthritis mouse model, SPECT/CT; format: in vivo, DBA/1j mice; details: 55 MBq per mouse i.v.
T1 construct: from tissue; host or cells: living mice (inflamed ear, joints) and explanted mouse heart, aorta and lungs
T1 sequence (P31725 2-113 limits assumed): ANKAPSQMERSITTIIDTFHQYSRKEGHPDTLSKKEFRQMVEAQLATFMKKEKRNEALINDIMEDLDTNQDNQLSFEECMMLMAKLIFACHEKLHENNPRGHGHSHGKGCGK
Experimental: FIG. 20: Accumulation of [^99mTc]FEB054 in a mouse model of collagen induced arthritis. The tracer was intravenously injected at a dose of 55 MBq per mouse. […] The tracer distribution was measured in vivo 60 min post injection using SPECT/CT.
Induction and imaging of CIA: Arthritis was induced in DBA/1j mice by injection of bovine collagen type II. Bovine collagen type II (bCII, MD Biosciences) was dissolved in 0.05 M acetic acid at a concentration of 2 mg/ml. DBA/1j mice were injected subcutaneously at the tail base with 100 μg bCII emulsified in CFA (Difco) and boostered on day 21 with 100 μg bCII in IFA at the same location. Mice were regularly inspected from day 14 after disease induction and scored for swelling, erythema and deformation of each joint three times a week. Imaging was performed after arthritis was clinically detectable in the majority of treated animals at indicated time points after tracer application of either Cy5.5-CES271 or [99mTc]FEB054.
SPECT/CT imaging of inflamed joints was recorded 1 h after iv injection of [99mTc]FEB054 (55 MBq of [99mTc]FEB054 per mouse). Individual feet of the mice were analysed separately according to the histological score. […] Even single affected joints could be clearly identified.

[3] = Human blood serum stability at 37 °C (gradient HPLC); format: in vitro ADME; details: freshly prepared human blood serum, over 120 min
Experimental: FIG. 17: Human serum blood stability of [^99mTc]FEB054. […] Blood serum stability was tested in freshly prepared human blood serum at 37° C. Samples were taken after 10, 20, 30, 60, 90 and 120 minutes and analysed using a gradient HPLC system. 5 MBq of [^99mTc]FEB054 in 20 μL PBS buffer was added to 200 μL of a freshly prepared human blood serum sample and incubated at 37° C. After 10, 20, 30, 60, 90 and 120 minutes, 20 μL were separated and diluted with 50 μL dichloromethane and 50 μL methanol. After centrifugation, 10 μL of the solution were analyzed via gradient-HPLC using a Knauer system with two Smartline 1000 pumps, Smartline UV detector 2500 (Herbert Knauer GmbH), a GabiStar γ-detector (Raytest lsotopenmessgeräte GmbH) and a reversed phase C18 column (Nucleosil 100-5 C-18 column 4.6 mm×250 mm). Eluent A: water (0.1% TFA). Eluent B: Methanol (0.1% TFA). […]
Blood serum stability was tested in freshly prepared human blood serum at 37° C. […] Samples were taken after 10, 20, 30, 60, 90 and 120 minutes and analysed using a gradient HPLC system. […] After centrifugation, 10 μl of the solution were analysed via gradient-HPLC using a Knauer system with two Smartline1000 pumps, Smartline UV-detector 2500 (Herbert Knauer GmbH), a GabiStar γ-detector (Raytest lsotopenmessgeräte GmbH) and a reverse phase […] column 4.6 mm×250 mm). […]

S100A9 [4] = target: T1, S100A9; assay: Irritant contact dermatitis (ICD) mouse model, SPECT/CT; format: in vivo, mice; details: 66 MBq per mouse i.v.
Experimental: FIG. 19: Accumulation of [^99mTc]FEB054 in the inflamed ear and muscle in a mouse model of contact dermatitis (ICD). The tracer was intravenously in a mouse model of contact dermatitis of the left ear in WT mice (=inflamed, right hand side) at a dose of 66 MBq per mouse and measured 0-60 min post injection.
Mice were injected and scanned under isoflurane/oxygen inhalation anaesthesia (1.4-1.8% isoflurane, 0.5 l O2/min). All animals were injected with a target dose of 2.5 MBq/g body weight) and a total injection volume ≤150 μl. […] Data analysis was performed by CT based definitions of regions-of-interest and quantitative mesurements are expressed as kBq/mL.
ICD was induced by the application of 20 μl 1% croton oil in olive oil-acetone (1:4) to the ventral surface of the left ear of mice for 24 h (n=5 per group), whereas the right ear served as a control. […] In the Cy7 channel the quantum yield is much lower compared to the Cy5.5 channel, which means that the recorded signal with Cy5.5-CES271 is higher than compared to […] (right image; FIG. 21). […] The labelling efficacy (dye/antibody ratio) was determined on the basis of ultraviolet-spectra of the purified dye-antibody compound using PBS as a reference buffer. […]

Accumulation of the tracer in the liver and intestines ([1]; 62 MBq per mouse i.v.): intensive accumulation
Time of hepato-biliary elimination ([1]; 62 MBq per mouse i.v.): ≤ 20 min
Route of elimination ([1]; 62 MBq per mouse i.v., 0-90 min post injection): predominant hepato-biliary elimination
Tracer availability in the blood ([1]; 62 MBq per mouse i.v., first 10 minutes): good tracer availability in the blood
Blood half-life ([1]; mouse, in vivo): suitable
Correlation of SPECT signal with clinical scoring (S100A9 [2]; 1 h after injection): excellent correlation
Tracer accumulation in liver, intestines, kidneys and urinary bladder (S100A9 [2]; 60 min post injection): intensive tracer accumulation
Substance: fac-[^99mTc(CO)3(5-ethyl-4-hydroxy-1-methyl-N-{1-(1-methyl-1H-imidazol-2-yl)-2-[(1-methyl-1H-imidazol-2-yl)methyl]-5,8,11-trioxa-2-azatridecan-13-yl}-2-oxo-N-phenyl-1,2-dihydroquinoline-3-carboxamide)]^+ [[^99mTc]FEB054]
Tracer accumulation in inflamed joints of the hind limbs versus healthy control mouse (S100A9 [2]; 60 min post injection): tracer accumulation in the inflamed joints
Human blood serum stability (decomposition) [3]: very good; also recorded: no decomposition
Tracer uptake in the inflamed ear compared to the healthy control ear (S100A9 [4]; 45 minutes post injection): higher tracer uptake
Uptake ratios inflamed ear versus blood and muscle (S100A9 [4]; dynamic imaging 0-60 min post injection): increasing uptake ratios
